From patent US7326725B2, “Fungicidal composition based on at least one pyridylmethylbenzamide derivatives and at least on dithiocarbamate derivative” (Bayer Cropscience S.A., priority 2001, dated 2008) come the findings set out here.

In the experiment the test system is Plasmopara viticola. Briefly: Curative test of 24 hours on grapevine infected with Plasmopara viticola. Format: in vivo. The settings on record: single compound, curative spray on Chardonay grapevine, assessed after six days at 20° C. The procedure:
The trials consisted in curative tests of 24 hours on grapevine infected with Plasmopara viticola.
Grapevine (Chardonay variety) plants are grown on sandy soil in plastic pots, with one plant per pot. The plants which are two months old (6- to 7-leaf stage) are inoculated by spraying an aqueous suspension of Plasmopara viticola sporocysts obtained from infected leaves. The concentration of sporocysts is about 100 000 units per ml.
After infection, the inoculated plants are subjected to a curative treatment by spraying with compound (I) alone and compound (II) alone, and with a mixture of compound (I) and compound (II), in each case applied at a dose of 500 l/ha.
After infection and curative treatment, the plants are covered and left for six days at 20° C.
The percentage control of the disease (efficacy: see below) is calculated for each treatment with reference to the untreated plants and the expected results are calculated using the Colby formula (see below).
The difference between the real results and the expected results is used to determine the synergy between the two fungicidal compounds of the composition according to the invention.
The efficacy of the treatment is calculated using the following Abbott formula: […]
Analysis of the results is carried out using the Colby model:
[formula] in which E represents the expected percentage of inhibition of the disease for the combination of the two fungicides at defined doses (for example equal to x and y respectively), x is the percentage of inhibition observed for the disease by the compound (I) at a defined dose (equal to x), y is the percentage of inhibition observed for the disease by the compound (II) at a defined dose (equal to y). When the percentage of inhibition observed for the combination is greater than E, there is a synergistic effect.

For the compound mancozeb, the Percentage efficacy (level 1 ppm) stood at 23.1%, the Percentage efficacy (level 10 ppm) was determined as 5.2% and the Percentage efficacy (level 25 ppm) worked out at 17.2%.
For `O=C(NCc1ncc(C(F)(F)F)cc1Cl)c1c(Cl)cccc1Cl` [(Ia), 2,6-dichloro-N-{[3-chloro-5-(trifluoromethyl)-2-pyridinyl]methyl}-benzamide], the Percentage efficacy by setting is: (level 0.1 ppm) 11.9%; (level 1 ppm) 58.2%; (level 5 ppm) 65.7%.
